These results are taken from article PMC12869243, “Urate-lowering effect of delphinidin-3-glucoside in red kidney beans via binding to the FAD site of the XO enzyme” (Journal of Advanced Research, 2025).

Test [1] addresses T1, xanthine oxidase (XO) (Bos taurus, UniProt P80457).
T1 construct: gene XDH

The target in test [2] is T1, xanthine oxidase (XO). Description: SPR (Biacore T200, CM5 chip, immobilised XO, steady-state analysis); also lowers uric acid production by purified XO (UHPLC-MS). The test is classed as binding. A general note: SPR reads the build-up and loss of mass on a sensor chip optically.

Structures are written as SMILES.

T1 sequence (P80457 2-1332): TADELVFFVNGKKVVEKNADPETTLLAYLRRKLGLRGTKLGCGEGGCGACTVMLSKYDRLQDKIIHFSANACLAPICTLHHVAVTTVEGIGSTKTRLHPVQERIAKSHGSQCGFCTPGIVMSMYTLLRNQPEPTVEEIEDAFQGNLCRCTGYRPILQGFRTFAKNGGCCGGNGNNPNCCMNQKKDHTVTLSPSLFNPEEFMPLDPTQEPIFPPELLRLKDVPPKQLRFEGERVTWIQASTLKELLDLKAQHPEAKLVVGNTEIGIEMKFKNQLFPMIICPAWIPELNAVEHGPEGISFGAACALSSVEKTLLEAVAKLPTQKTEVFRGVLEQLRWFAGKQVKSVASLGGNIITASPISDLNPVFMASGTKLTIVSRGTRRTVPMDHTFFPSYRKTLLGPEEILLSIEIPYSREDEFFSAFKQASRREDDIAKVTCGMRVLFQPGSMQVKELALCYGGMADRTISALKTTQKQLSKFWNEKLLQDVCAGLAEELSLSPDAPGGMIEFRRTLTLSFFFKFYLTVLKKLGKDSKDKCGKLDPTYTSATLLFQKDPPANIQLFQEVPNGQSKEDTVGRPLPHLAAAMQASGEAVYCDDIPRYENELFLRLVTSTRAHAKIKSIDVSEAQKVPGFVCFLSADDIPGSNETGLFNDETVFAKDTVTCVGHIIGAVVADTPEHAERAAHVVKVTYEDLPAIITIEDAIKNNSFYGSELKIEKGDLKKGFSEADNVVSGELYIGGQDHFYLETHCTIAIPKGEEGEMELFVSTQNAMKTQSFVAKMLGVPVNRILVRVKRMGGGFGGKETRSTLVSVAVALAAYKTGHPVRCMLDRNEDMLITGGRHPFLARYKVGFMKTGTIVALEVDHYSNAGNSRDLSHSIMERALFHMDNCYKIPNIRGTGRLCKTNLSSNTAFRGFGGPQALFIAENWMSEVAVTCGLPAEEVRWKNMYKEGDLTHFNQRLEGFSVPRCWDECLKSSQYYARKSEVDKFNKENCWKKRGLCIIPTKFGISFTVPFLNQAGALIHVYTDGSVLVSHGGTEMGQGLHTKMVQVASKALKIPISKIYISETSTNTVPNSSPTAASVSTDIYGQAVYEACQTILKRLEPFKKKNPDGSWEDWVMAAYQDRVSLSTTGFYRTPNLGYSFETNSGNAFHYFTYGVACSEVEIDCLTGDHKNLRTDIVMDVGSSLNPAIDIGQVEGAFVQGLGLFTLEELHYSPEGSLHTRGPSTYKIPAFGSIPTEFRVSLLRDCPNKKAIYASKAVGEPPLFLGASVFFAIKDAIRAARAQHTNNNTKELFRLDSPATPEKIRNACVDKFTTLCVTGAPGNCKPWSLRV

In the case of `Oc1ncnc2[nH]ncc12` [AP, allopurinol], the “XO reaction-UHPLC/MS assay of uric acid production from xanthine, AP at 100 μM a” value in test [1] is recorded as “We observed a significant reduction in uric acid levels in the AP treated group, a potent purine-like XOI”.

One may read the Kd as the equilibrium constant for the complex coming apart. On to `OC[C@H]1O[C@@H](Oc2cc3c(O)cc(O)cc3[o+]c2-c2cc(O)c(O)c(O)c2)[C@H](O)[C@@H](O)[C@@H]1O` [Dp-3G, delphinidin-3-glucoside], for which binding in test [2] was put at a Kd of 250 nM. This counts as sub-micromolar.
